# Results: patent US9566342B2, “Compounds for treatment of heart failure” (SOLVOTRIN INNOVATIONS LIMITED, priority 2010, dated 2017)
# Key:
# human colon cancer cells = test: Colon cancer cell invasiveness, in vitro model; format: cell-based; details: low dose, FIG. 10
# MMP-8 = MMP-8 (Homo sapiens, UniProt P22894); test: Direct enzyme inhibition, MMP-8; format: biochemical
# MMP-2 [1] = test: PMA stimulated breast cancer cell model (HT1080 cells), pro-MMP-2 / MMP-2; format: cell-based
# MMP-1 = target: T1, MMP-1 (Homo sapiens, UniProt P03956); test: Direct enzyme inhibition, MMP-1; format: biochemical
# T1 sequence (P03956 100-469): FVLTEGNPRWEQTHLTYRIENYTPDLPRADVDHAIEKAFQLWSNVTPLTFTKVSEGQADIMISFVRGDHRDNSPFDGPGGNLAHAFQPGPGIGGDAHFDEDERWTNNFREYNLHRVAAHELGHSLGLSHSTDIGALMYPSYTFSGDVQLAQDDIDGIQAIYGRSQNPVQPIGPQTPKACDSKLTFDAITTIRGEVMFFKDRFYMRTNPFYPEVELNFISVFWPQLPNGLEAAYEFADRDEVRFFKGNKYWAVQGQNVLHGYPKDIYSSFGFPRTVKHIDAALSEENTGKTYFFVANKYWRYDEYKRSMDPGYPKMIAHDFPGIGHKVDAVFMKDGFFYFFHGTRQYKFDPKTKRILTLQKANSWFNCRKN
# MMP-9 [2] = target: MMP-9 (Homo sapiens, UniProt P14780); test: Model of direct enzyme inhibition, MMP-9 (IC50); format: biochemical
# MMP-9 [3] = test: Total MMP-9 levels on repeated oral administration in non-human primates; format: in vivo, cynomolgus monkeys; details: cynomolgus monkey, in vivo, po
# MMP-2 [4] = target: T2, MMP-2 (Homo sapiens, UniProt P08253); test: Model of direct enzyme inhibition, MMP-2 (IC50); format: biochemical
# T2 sequence (P08253 110-660): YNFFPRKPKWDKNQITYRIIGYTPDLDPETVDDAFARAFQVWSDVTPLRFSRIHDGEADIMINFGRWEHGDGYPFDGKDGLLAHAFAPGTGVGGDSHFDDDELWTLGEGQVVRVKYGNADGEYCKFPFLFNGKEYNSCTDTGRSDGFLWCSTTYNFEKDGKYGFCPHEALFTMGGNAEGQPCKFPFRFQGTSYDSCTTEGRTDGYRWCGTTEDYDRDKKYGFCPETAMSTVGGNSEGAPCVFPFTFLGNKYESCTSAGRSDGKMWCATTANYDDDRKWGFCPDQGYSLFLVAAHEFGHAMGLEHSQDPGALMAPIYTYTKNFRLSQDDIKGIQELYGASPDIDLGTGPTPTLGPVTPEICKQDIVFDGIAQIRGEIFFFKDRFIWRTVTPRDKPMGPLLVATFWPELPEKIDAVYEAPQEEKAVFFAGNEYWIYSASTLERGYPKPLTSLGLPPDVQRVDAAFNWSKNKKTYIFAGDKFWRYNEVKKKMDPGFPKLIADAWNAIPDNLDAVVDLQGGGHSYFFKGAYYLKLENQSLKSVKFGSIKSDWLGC
# MMP-13 = MMP-13 (Homo sapiens, UniProt P45452); test: Direct enzyme inhibition, MMP-13; format: biochemical
# Chain of MMP-8 (P22894 101-467, species assumed): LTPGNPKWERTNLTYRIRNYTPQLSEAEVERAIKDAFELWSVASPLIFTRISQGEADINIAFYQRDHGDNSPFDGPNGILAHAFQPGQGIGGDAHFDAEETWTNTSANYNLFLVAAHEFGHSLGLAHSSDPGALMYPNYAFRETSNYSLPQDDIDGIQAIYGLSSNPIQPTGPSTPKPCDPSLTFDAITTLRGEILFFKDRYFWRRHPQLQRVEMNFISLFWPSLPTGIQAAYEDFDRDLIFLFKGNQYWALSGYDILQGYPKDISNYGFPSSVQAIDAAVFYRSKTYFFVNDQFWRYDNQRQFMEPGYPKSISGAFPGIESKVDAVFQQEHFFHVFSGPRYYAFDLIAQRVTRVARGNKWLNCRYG
# Chain of MMP-9 (Homo sapiens, UniProt P14780) (P14780 94-707): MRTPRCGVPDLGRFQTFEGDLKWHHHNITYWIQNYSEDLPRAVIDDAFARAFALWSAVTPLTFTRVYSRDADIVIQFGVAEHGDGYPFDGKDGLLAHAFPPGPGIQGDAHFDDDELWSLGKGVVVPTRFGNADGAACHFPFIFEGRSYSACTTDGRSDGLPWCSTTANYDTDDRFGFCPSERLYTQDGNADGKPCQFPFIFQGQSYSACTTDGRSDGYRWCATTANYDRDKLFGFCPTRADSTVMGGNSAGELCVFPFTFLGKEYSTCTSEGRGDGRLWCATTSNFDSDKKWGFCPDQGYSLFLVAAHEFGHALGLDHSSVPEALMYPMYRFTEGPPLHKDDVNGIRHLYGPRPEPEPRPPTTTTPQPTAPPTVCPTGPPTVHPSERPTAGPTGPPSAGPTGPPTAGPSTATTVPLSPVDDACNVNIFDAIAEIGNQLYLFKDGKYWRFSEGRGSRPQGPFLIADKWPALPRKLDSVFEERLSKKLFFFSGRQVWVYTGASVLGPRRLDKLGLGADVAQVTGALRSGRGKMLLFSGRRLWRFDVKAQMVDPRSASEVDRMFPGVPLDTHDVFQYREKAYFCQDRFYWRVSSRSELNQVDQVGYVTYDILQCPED
compound,measurement,setting,value
Amido-N-[3-(Nitrooxymethyl)Piperidinomethyl]-α-6-Deoxy-5-Oxytetracycline [SI1005],colon cancer cell invasiveness,human colon cancer cells,more effective in reducing tumour cell invasiveness
same,MMP-8 inhibition,MMP-8; 10 μM,~16.9%
same,MMP-8 inhibition,MMP-8; 100 μM,around 53.8%
same,conversion of pro-MMP-2 to active MMP-2 (activation of MMP-2),MMP-2 [1],do not appear to activate MMP-2
same,MMP-1 inhibition,MMP-1; 10 μM,~13%
same,MMP-1 inhibition,MMP-1; 100 μM,around 22%
same,IC50,MMP-9 [2],139 µM
same,change in MMP-9 from baseline to 72 hours,MMP-9 [3],significantly reduced compared to doxycycline and SI1004
same,IC50,MMP-2 [4],63 µM
same,MMP-13 inhibition,MMP-13; 10 μM,~6.6%
same,MMP-13 inhibition,MMP-13; 100 μM,around 28.4%
"C[C@H]1c2cccc(O)c2C(=O)C2=C(O)[C@]3(O)C(=O)C(C(=O)NCN4CCC(CO[N+](=O)[O-])CC4)=C(O)[C@@H](N(C)C)[C@@H]3[C@@H](O)[C@@H]21 [Example 7, amido-N-[4-(nitrooxymethyl)piperidinomethyl]-α-6-deoxy-5-oxytetracycline]",melting point,,130 to 132 °C
